# Test results published in PMC9762789, “Chromone-based monoamine oxidase B inhibitor with potential iron-chelating activity for the treatment of Alzheimer’s disease” (Journal of Enzyme Inhibition and Medicinal Chemistry, 2022).
# Key:
# PAMPA-BBB assay = assay type: in vitro ADME
# Description: Good blood–brain barrier (BBB) permeability is the key to exerting drug efficacy in the treatment of central nervous system diseases. To evaluate whether the target compound could penetrate BBB, a parallel artificial membrane permeability assay (PAMPA) was used to predict[32]^,[33]. […] Therefore, due to its potential ability to cross the BBB, compound 17d was selected for subsequent assay.
# PAMPA was used to predict the BBB permeability of the screened compound. The detailed process has been mentioned in our early work[32]^,[33].
# MAO-B [1] = target: T1, MAO-B (Homo sapiens, UniProt P27338); test: MAO-B kinetic study (Michaelis-Menten, Lineweaver-Burk, p-tyramine substrate); assay type: biochemical
# T1 construct: purchased Sigma-Aldrich
# T1 sequence (P27338 1-520): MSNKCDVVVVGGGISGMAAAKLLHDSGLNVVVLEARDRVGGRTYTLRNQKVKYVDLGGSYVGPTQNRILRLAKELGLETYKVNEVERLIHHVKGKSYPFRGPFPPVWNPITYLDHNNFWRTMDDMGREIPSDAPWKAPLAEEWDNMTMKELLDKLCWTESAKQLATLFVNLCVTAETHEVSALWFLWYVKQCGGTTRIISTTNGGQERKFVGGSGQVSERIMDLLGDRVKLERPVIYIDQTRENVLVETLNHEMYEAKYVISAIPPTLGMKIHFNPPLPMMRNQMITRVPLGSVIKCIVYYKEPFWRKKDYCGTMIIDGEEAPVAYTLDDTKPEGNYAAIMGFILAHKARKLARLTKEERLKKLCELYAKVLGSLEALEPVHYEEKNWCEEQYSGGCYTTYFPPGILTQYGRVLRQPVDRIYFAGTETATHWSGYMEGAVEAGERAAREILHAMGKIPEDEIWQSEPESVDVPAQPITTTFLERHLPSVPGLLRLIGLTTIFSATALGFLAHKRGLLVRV
# Description: Figure 5. Kinetic study and cytotoxicity assay of compound 17d. […] The Cytotoxicity effect of compound 17d on PC-12 cells (C).
# To examine the interaction mode of 17d on MAO-B, kinetic studies were carried out. From the Lineweaver–Burk plots (Figure 5(B)), we observed that 17d operated by a non-competitive inhibition mechanism. […] Subsequently, the potential toxic effect of 17d was investigated on pheochromocytoma (PC-12) cells.
# To further examine the interaction mode of compound 17d, the type of enzyme inhibition was determined by Michealis–Menten kinetic experiments. The catalytic rates of MAO‐B enzyme were measured at six different concentrations of substrate p‐tyramine (0.05, 0.1, 0.25, 0.5, 1.0, and 1.25 mM) in the absence and in the three different concentrations (33.3, 100, and 300 nM) of compound 17d. The corresponding dose‐response curves and the nonlinear/linear regression analysis were performed using GraphPad Prism version 6 software (Graphpad Software Inc., La Jolla, CA).
# [2] = iron (III) affinity constants and pFe3+ by spectrophotometric titration; assay type: physicochemical
# MAO-B [3] = target: T1, MAO-B; test: hMAO-B inhibition assay; assay type: biochemical
# Description: The reagents and enzymes (Human MAO-B and Human MAO-A) applied in this experiment were purchased from Sigma-Aldrich. According to the manuals, all components (substrate solution and enzyme solution) are diluted and placed aside for use. The detailed process has been mentioned in our early work[34].
# [4] = test system: scopolamine-induced cognitive impairment mice model; test: Morris water maze test, scopolamine-induced memory impairment; assay type: in vivo, ICR mice
# Description: To further explore the in vivo anti-AD effect of compound 17d on the scopolamine-induced cognitive impairment mice model, the Morris Water Maze experiment was selected; data are shown in Figure 7 and Table 5.
# Figure 7.
# Adult female ICR mice (weight 20–25 g) were obtained from the Zhejiang Academy of Medical Sciences (Hangzhou, China). Scopolamine hydrobromide and Pargyline were purchased from Aladdin Reagents. Memantine was purchased from Energy Chemical. All experiments were approved by the Laboratory Animals Ethical Committee of the Zhejiang University of Technology (No. 20211210103). In this test, mice were prepared as clarified and clear injections, consisting of 20% (2-Hydroxypropyl)-β-cyclodextrin, 10% DMSO, and PBS. […] Mice were administered at a frequency of once a day over 15 d with a fixed dosing schedule. The body weight of mice was measured during the experiment.
# After eliminating environmental stress, the behavioural test was performed over the next five days. The mice were trained to find the platform (10 cm diameter) in the circular light-avoidance pool (120 cm diameter and 60 cm height) filled with water (40 cm, depth), which was described in detail in our previous study. All mice received at least one training session daily in four quadrants for four consecutive days before the probe trial of finding the platform within 120 s. Recordings were made with SMART version 3.0 (Panlab, Spain) and processed by Graphpad Prism version 6 software (Graphpad Software Inc., La Jolla, CA, USA).
# [5] = DMSO: KCl (0.1 M) = 1:1.5 (v/v)
compound,measurement,setting,value
"COc1ccc2c(=O)c(CNCCn3ccc(=O)c(O)c3C)coc2c1 [Compound 17d, 3-Hydroxy-1–(2-(((7-methoxy-4-oxo-4H-chromen-3-yl)methyl)amino)ethyl)-2-methylpyridin-4(1H)-one]",Papp,"PAMPA-BBB assay; PAMPA-BBB, mean ± SEM of eight independent experiments, read-out: Pe ± SEM",2.73 ± 0.07 ×10⁻⁶ cm/s
same,CNS,PAMPA-BBB assay; class from PAMPA-BBB Pe,± (CNS (±) (BBB permeation uncertain); Pe (× 10^−6 cm s^−1) from 2.0 to 4.0)
same,inhibition mechanism,MAO-B [1]; Lineweaver–Burk plots,non-competitive
same,Ki,"MAO-B [1]; p-tyramine substrate, GraphPad Prism, read-out: inhibition constant (Ki)",74.7 nM
same,Log β1,[2]; [5],13.50
same,Log β2,[2]; [5],25.21
same,Log β3,[2]; [5],35.13
same,pFe^3+,[2]; calculated from Log β values obtained in DMSO: KCl (0.1 M) = 1:1.5 (v/v),18.52
same,IC50,MAO-B [3],67 ± 4.3 nM
same,SI: hMAO-B selectivity index = IC50 (hMAO-A)/IC50 (hMAO-B),MAO-B [3],11.0
same,inhibition at 0.1 µM,"MAO-B [3]; hMAO-B, 100 nM, read-out: Inhibitory rate (%, 100 nM)",48.9 ± 1.4%
same,body weight of mice,"[4]; 15 mg/kg once a day, after ten days",increased after ten days
same,scopolamine-induced cognitive impairment,"[4]; 15 mg/kg, mice, Morris water maze",significantly ameliorated
same,Entries to target,"[4]; 15 mg/kg, scopolamine 15 mg/kg, ICR mice, mean ± SEM, n = 15",3.3 ± 0.3
